Measured values as given in patent US6645918B1, “N-([1,2,4]triazoloazinyl)thiophenesulfonamide compounds and their use as herbicides” (Dow AgroSciences LLC, priority 2000, dated 2003).

Assays:
Type in all cases: in vivo
[1] = tested on: cocklebur (Xanthium strumarium); test: Preemergence herbicidal activity, cocklebur; conditions: soil spray, visual after 3 weeks, 0 no injury, 100 complete kill or no germination
Procedure: (§1) The soil matrix was contained in plastic pots with a surface area of 161 square centimeters. When required to ensure good germination and healthy plants, a fungicide treatment and/or other chemical or physical treatment was applied. A weighed amount, determined by the highest rate to be tested, of each test compound was placed in a 20 mL glass vial and was dissolved in 8 mL of a 97:3 v/v (volume/volume) mixture of acetone and dimethyl sulfoxide to obtain concentrated stock solutions. […] The stock solutions obtained were diluted with a 99.9:0.1 mixture of water and Tween® 155 surfactant (ethoxylated sorbitan fatty acid ester) to obtain application solutions of known concentration. The solutions containing the highest concentration to be tested were prepared by diluting 4 mL aliquots of the stock solution with 8.5 mL of the mixture and lower concentrations were prepared by dilution of appropriate smaller portions of the stock solution. A 2.5 mL aliquot of each solution of known concentration was sprayed evenly onto the soil of each seeded pot using a Cornwall 5.0 mL glass syringe fitted with a TeeJet TN-3 hollow cone nozzle to obtain thorough coverage of the soil in each pot. Control pots were sprayed in the same manner with the aqueous mixture. A highest application rate of 4.48 kg/ha is achieved when 50 mg of test compound is employed. The treated pots and control pots were placed in a greenhouse with an approximately 15 hr photoperiod which was maintained at about 23-29° C. during the day and 22-28° C. during the night. Nutrients and water were added on a regular basis and supplemental lighting was provided with overhead metal halide 1000 Watt lamps as necessary. The water was added by top-irrigation. After 3 weeks the condition of the test plants that germinated and grew as compared with that of the untreated plants that germinated and grew was determined visually and scored on a scale of 0 to 100 percent where 0 corresponds to no injury and 100 corresponds to complete kill or no germination.

[2] = tested on: wild buckwheat (Polygonum convolvulus); test: Postemergence herbicidal activity, wild buckwheat; conditions: foliar spray, visual after 2 weeks, 0 no injury, 100 complete kill
Procedure: (§2) Seeds of the desired test plant species were planted in Grace-Sierra MetroMix® 306 planting mixture, which typically has a pH of 6.0 to 6.8 and an organic matter content of about 30 percent, in plastic pots with a surface area of 64 square centimeters. When required to ensure good germination and healthy plants, a fungicide treatment and/or other chemical or physical treatment was applied. The plants were grown for 7-21 days in a greenhouse with an approximately 15 hr photoperiod which was maintained at about 23-29° C. during the day and 22-28° C. during the night. Nutrients and water were added on a regular basis and supplemental lighting was provided with overhead metal halide 1000 Watt lamps as necessary. The plants were employed for testing when they reached the first or second true leaf stage. A weighed amount of each test compound, determined by the highest rate to be tested, was placed in a 20 mL glass vial and was dissolved in 4 mL of a 97:3 v/v (volume/volume) mixture of acetone and dimethyl sulfoxide to obtain concentrated stock solutions. […] The concentrated stock solutions obtained were diluted with an aqueous mixture containing acetone, water, iso-propyl alcohol, dimethyl sulfoxide, Atplus 411F crop oil concentrate, and Triton X-155 surfactant (methylenebisdiamyl phenoxy polyethoxy ethanol) in a 48.5:39:10:1.5:1.0:0.02 v/v ratio to obtain spray solutions of known concentration. The solutions containing the highest concentration to be tested were prepared by diluting 2 mL aliquots of the stock solution with 13 mL of the mixture and lower concentrations were prepared by dilution of appropriate smaller portions of the stock solution. Approximately 1.5 mL aliquots of each solution of known concentration were sprayed evenly onto each of the test plant pots using a DeVilbiss atomizer driven by compressed air pressure of 2 to 4 psi (140 to 280 kilopascals) to obtain thorough coverage of each plant. Control plants were sprayed in the same manner with the aqueous mixture. In this test an application rate of 1 ppm results in the application of approximately 1 g/ha. The treated plants and control plants were placed in a greenhouse as described above and watered by sub-irrigation to prevent wash-off of the test compounds. After 2 weeks the condition of the test plants as compared with that of the untreated plants was determined visually and scored on a scale of 0 to 100 percent where 0 corresponds to no injury and 100 corresponds to complete kill.

[3] = tested on: Rox orange sorghum (Sorghum bicolor); test: Preemergence herbicidal activity, Rox orange sorghum; conditions: soil spray, visual after 3 weeks, 0 no injury, 100 complete kill or no germination
Procedure: as §1

[4] = tested on: morningglory (Ipomoea hederacea); test: Postemergence herbicidal activity, morningglory; conditions: foliar spray, visual after 2 weeks, 0 no injury, 100 complete kill
Procedure: as §2

[5] = tested on: cocklebur (Xanthium strumarium); test: Postemergence herbicidal activity, cocklebur; conditions: foliar spray, visual after 2 weeks, 0 no injury, 100 complete kill
Procedure: as §2

[6] = tested on: crabgrass (Digitaria sanguinalis); test: Preemergence herbicidal activity, crabgrass; conditions: soil spray, visual after 3 weeks, 0 no injury, 100 complete kill or no germination
Procedure: as §1

[7] = tested on: velvetleaf (Abutilion theophrasti); test: Preemergence herbicidal activity, velvetleaf; conditions: soil spray, visual after 3 weeks, 0 no injury, 100 complete kill or no germination
Procedure: as §1

wild oats (Avena fatua) [8] = test: Preemergence herbicidal activity, wild oats; conditions: soil spray, visual after 3 weeks, 0 no injury, 100 complete kill or no germination
Procedure: as §1

[9] = tested on: giant foxtail (Setaria faberi); test: Preemergence herbicidal activity, giant foxtail; conditions: soil spray, visual after 3 weeks, 0 no injury, 100 complete kill or no germination
Procedure: as §1

[10] = tested on: morningglory (Ipomoea hederacea); test: Preemergence herbicidal activity, morningglory; conditions: soil spray, visual after 3 weeks, 0 no injury, 100 complete kill or no germination
Procedure: as §1

[11] = tested on: lambsquarters (Chenopodium album); test: Preemergence herbicidal activity, lambsquarters; conditions: soil spray, visual after 3 weeks, 0 no injury, 100 complete kill or no germination
Procedure: as §1

[12] = tested on: wild poinsettia (Euphorbia heterophylla); test: Preemergence herbicidal activity, wild poinsettia; conditions: soil spray, visual after 3 weeks, 0 no injury, 100 complete kill or no germination
Procedure: as §1

[13] = tested on: giant foxtail (Setaria faberi); test: Postemergence herbicidal activity, giant foxtail; conditions: foliar spray, visual after 2 weeks, 0 no injury, 100 complete kill
Procedure: as §2

[14] = tested on: velvetleaf (Abutilion theophrasti); test: Postemergence herbicidal activity, velvetleaf; conditions: foliar spray, visual after 2 weeks, 0 no injury, 100 complete kill
Procedure: as §2

[15] = tested on: pigweed (Amaranthus retroflexus); test: Postemergence herbicidal activity, pigweed; conditions: foliar spray, visual after 2 weeks, 0 no injury, 100 complete kill
Procedure: as §2

[16] = tested on: pigweed (Amaranthus retroflexus); test: Preemergence herbicidal activity, pigweed; conditions: soil spray, visual after 3 weeks, 0 no injury, 100 complete kill or no germination
Procedure: as §1

[17] = tested on: blackgrass (Alopecurus myosuroides); test: Preemergence herbicidal activity, blackgrass; conditions: soil spray, visual after 3 weeks, 0 no injury, 100 complete kill or no germination
Procedure: as §1

[18] = tested on: lambsquarters (Chenopodium album); test: Postemergence herbicidal activity, lambsquarters; conditions: foliar spray, visual after 2 weeks, 0 no injury, 100 complete kill
Procedure: as §2

viola (Viola tricolor) = test: Postemergence herbicidal activity, viola; conditions: foliar spray, visual after 2 weeks, 0 no injury, 100 complete kill
Procedure: as §2

wild oats (Avena fatua) [19] = test: Postemergence herbicidal activity, wild oats; conditions: foliar spray, visual after 2 weeks, 0 no injury, 100 complete kill
Procedure: as §2

[20] = tested on: Rox orange sorghum (Sorghum bicolor); test: Postemergence herbicidal activity, Rox orange sorghum; conditions: foliar spray, visual after 2 weeks, 0 no injury, 100 complete kill
Procedure: as §2

[21] = tested on: chickweed (Stellaria media); test: Postemergence herbicidal activity, chickweed; conditions: foliar spray, visual after 2 weeks, 0 no injury, 100 complete kill
Procedure: as §2

[22] = tested on: blackgrass (Alopecurus myosuroides); test: Postemergence herbicidal activity, blackgrass; conditions: foliar spray, visual after 2 weeks, 0 no injury, 100 complete kill
Procedure: as §2

[23] = tested on: barnyardgrass (Echinochloa crus-galli); test: Preemergence herbicidal activity, barnyardgrass; conditions: soil spray, visual after 3 weeks, 0 no injury, 100 complete kill or no germination
Procedure: as §1

## CCOc1cscc1S(=O)(=O)Nc1nc2nc(OC)cc(OC)n2n1 [Compound 12]
[1]; 8.8 g/Ha
  XANST preemergence injury score 0-100: 90%
[2]; 15.6 ppm
  POLCO postemergence injury score 0-100: 85%
[3]; 8.8 g/Ha
  SORBI preemergence injury score 0-100: 100%
[4]; 15.6 ppm
  IPOHE postemergence injury score 0-100: 95%
[5]; 15.6 ppm
  XANST postemergence injury score 0-100: 90%
[6]; 8.8 g/Ha
  DIGSA preemergence injury score 0-100: 100%
[7]; 8.8 g/Ha
  ABUTH preemergence injury score 0-100: 90%
Wild oats (Avena fatua) [8]; 8.8 g/Ha
  AVEFA preemergence injury score 0-100: 100%
[9]; 8.8 g/Ha
  SETFA preemergence injury score 0-100: 100%
[10]; 8.8 g/Ha
  IPOHE preemergence injury score 0-100: 80%
[11]; 8.8 g/Ha
  CHEAL preemergence injury score 0-100: 100%
[12]; 8.8 g/Ha
  EPHHL preemergence injury score 0-100: 95%
[13]; 15.6 ppm
  SETFA postemergence injury score 0-100: 95%
[14]; 15.6 ppm
  ABUTH postemergence injury score 0-100: 95%
[15]; 15.6 ppm
  AMARE postemergence injury score 0-100: 95%
[16]; 8.8 g/Ha
  AMARE preemergence injury score 0-100: 100%
[17]; 8.8 g/Ha
  ALOMY preemergence injury score 0-100: 100%
[18]; 15.6 ppm
  CHEAL postemergence injury score 0-100: 90%
Viola (Viola tricolor); 15.6 ppm
  VIOTR postemergence injury score 0-100: 80%
Wild oats (Avena fatua) [19]; 15.6 ppm
  AVEFA postemergence injury score 0-100: 85%
[20]; 15.6 ppm
  SORBI postemergence injury score 0-100: 95%
[21]; 15.6 ppm
  STEME postemergence injury score 0-100: 95%
[22]; 15.6 ppm
  ALOMY postemergence injury score 0-100: 60%
[23]; 8.8 g/Ha
  ECHCG preemergence injury score 0-100: 100%

## COc1cscc1S(=O)(=O)Nc1nc2c(Cl)cnc(OC)n2n1 [Compound 14]
[1]; 35 g/Ha
  XANST preemergence injury score 0-100: 60%
[2]; 31.3 ppm
  POLCO postemergence injury score 0-100: 95%
[3]; 35 g/Ha
  SORBI preemergence injury score 0-100: 100%
[4]; 31.3 ppm
  IPOHE postemergence injury score 0-100: 80%
[5]; 31.3 ppm
  XANST postemergence injury score 0-100: 95%
[6]; 35 g/Ha
  DIGSA preemergence injury score 0-100: 100%
[7]; 35 g/Ha
  ABUTH preemergence injury score 0-100: 80%
Wild oats (Avena fatua) [8]; 35 g/Ha
  AVEFA preemergence injury score 0-100: 100%
[9]; 35 g/Ha
  SETFA preemergence injury score 0-100: 100%
[10]; 35 g/Ha
  IPOHE preemergence injury score 0-100: 60%
[11]; 35 g/Ha
  CHEAL preemergence injury score 0-100: 98%
[12]; 35 g/Ha
  EPHHL preemergence injury score 0-100: 30%
[13]; 31.3 ppm
  SETFA postemergence injury score 0-100: 95%
[14]; 31.3 ppm
  ABUTH postemergence injury score 0-100: 90%
[15]; 31.3 ppm
  AMARE postemergence injury score 0-100: 95%
[16]; 35 g/Ha
  AMARE preemergence injury score 0-100: 80%
[17]; 35 g/Ha
  ALOMY preemergence injury score 0-100: 100%
[18]; 31.3 ppm
  CHEAL postemergence injury score 0-100: 100%
Viola (Viola tricolor); 31.3 ppm
  VIOTR postemergence injury score 0-100: 75%
Wild oats (Avena fatua) [19]; 31.3 ppm
  AVEFA postemergence injury score 0-100: 80%
[20]; 31.3 ppm
  SORBI postemergence injury score 0-100: 95%
[21]; 31.3 ppm
  STEME postemergence injury score 0-100: 100%
[22]; 31.3 ppm
  ALOMY postemergence injury score 0-100: 80%
[23]; 35 g/Ha
  ECHCG preemergence injury score 0-100: 98%

## COc1cc(OC)n2nc(NS(=O)(=O)c3cscc3OC)nc2n1 [Compound 15]
[1]; 8.8 g/Ha
  XANST preemergence injury score 0-100: 60%
[2]; 15.6 ppm
  POLCO postemergence injury score 0-100: 80%
[3]; 8.8 g/Ha
  SORBI preemergence injury score 0-100: 100%
[4]; 15.6 ppm
  IPOHE postemergence injury score 0-100: 70%
[5]; 15.6 ppm
  XANST postemergence injury score 0-100: 90%
[6]; 8.8 g/Ha
  DIGSA preemergence injury score 0-100: 100%
[7]; 8.8 g/Ha
  ABUTH preemergence injury score 0-100: 90%
Wild oats (Avena fatua) [8]; 8.8 g/Ha
  AVEFA preemergence injury score 0-100: 100%
[9]; 8.8 g/Ha
  SETFA preemergence injury score 0-100: 100%
[10]; 8.8 g/Ha
  IPOHE preemergence injury score 0-100: 70%
[11]; 8.8 g/Ha
  CHEAL preemergence injury score 0-100: 98%
[12]; 8.8 g/Ha
  EPHHL preemergence injury score 0-100: 90%
[13]; 15.6 ppm
  SETFA postemergence injury score 0-100: 100%
[14]; 15.6 ppm
  ABUTH postemergence injury score 0-100: 70%
[15]; 15.6 ppm
  AMARE postemergence injury score 0-100: 90%
[16]; 8.8 g/Ha
  AMARE preemergence injury score 0-100: 85%
[17]; 8.8 g/Ha
  ALOMY preemergence injury score 0-100: 100%
[18]; 15.6 ppm
  CHEAL postemergence injury score 0-100: 90%
Viola (Viola tricolor); 15.6 ppm
  VIOTR postemergence injury score 0-100: 70%
Wild oats (Avena fatua) [19]; 15.6 ppm
  AVEFA postemergence injury score 0-100: 95%
[20]; 15.6 ppm
  SORBI postemergence injury score 0-100: 100%
[21]; 15.6 ppm
  STEME postemergence injury score 0-100: 90%
[22]; 15.6 ppm
  ALOMY postemergence injury score 0-100: 80%
[23]; 8.8 g/Ha
  ECHCG preemergence injury score 0-100: 80%
